The target in assay [1] is T1, IL17A (Homo sapiens, UniProt Q16552).
T1 sequence (Q16552 24-155): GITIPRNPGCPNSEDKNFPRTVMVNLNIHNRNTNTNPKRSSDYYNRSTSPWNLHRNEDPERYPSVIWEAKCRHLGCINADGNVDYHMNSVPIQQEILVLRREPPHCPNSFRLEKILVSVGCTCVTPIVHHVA
The assay can be described thus: Surface Plasmon Resonance (SPR) analysis of compound interactions with IL17A. Conditions: SPR binding to IL17A. Here is the method: SPR analysis was carried out with a GE Healthcare (Piscataway, N.J.) Biacore X100 system. Typically, the chip (NTA Biacore Biosensor chip; GE Healthcare BR-1000-34) was first conditioned by injection of 0.35 M EDTA, which also served to remove any immobilized proteins from previous runs. Before immobilization of the recombinant 6-His-tagged IL17, the chip was washed with 0.5 mM nickel chloride in NTA buffer (10 mM HEPES buffer, 0.15 M sodium chloride, 10 μM ethylene diamine tetraacetic acid, 0.005% v/v surfactant P20 (GE Healthcare BR-1000-54)) to form a nickel chelate on the chip. IL17 protein was immobilized onto a NTA chip through its 6-His tag. IL17A was typically injected at 0.25 μM for 60-120 seconds, followed by a stabilization step washing with NTA+0.5% DMSO for 120 seconds or longer.
Five 2-fold or 3-fold serial dilutions of test compound were injected serially onto the chip. All steps were conducted using NTA buffer containing 0.5% v/v dimethylsulfoxide (DMSO). Compounds were diluted from stock solutions of 10 mM concentration in 100% DMSO with NTA buffer to obtain 50 μM solutions in NTA+0.5% DMSO. Subsequent 2× or 3× dilutions were made in NTA+0.5% DMSO. Compound was generally injected for 180 seconds followed by washing the chip in buffer alone for 120 seconds. The rate of refractive index change (RU units/time) and the maximum extend of RU change was measured during the “on” phase of analyte injection, followed by measuring the rate during the “off” phase.
Kinetic parameter fits were conducted using the Biacore SPR Evaluation Program (GE Healthcare) for 1:1 molecular binding fits, after subtracting the baseline average of 2 or more runs in which no analyte was injected. This program then reports the best fit average for the “on” rate (Ka), the “off” rate (Kd) and the dissociation constant (KD) (Chaiken, I et al., Anal Biochem 201, 197-210 (1992)). A separate program in the Biacore SPR Evaluation Program then calculates the best fit for Kd based upon the extent of binding alone (RU units bound) at each concentration of analyte and reports the best fit Kd by best fit to a Lineweaver-Burke plot. Typically, the Kd value calculated through both means agreed within a factor of three.
The presence and activity of IL17 on the NTA chip was routinely confirmed three ways: • 1) An increase in response units (RU) upon immobilization confirms that the IL17 was immobilized on the chip; • 2) Anti-IL17 was also injected on the chip to confirm the presence of IL17; and • 3) IL17R was injected onto the chip to confirm that the immobilized IL17 retained its binding activity for its receptor. Negative controls to access specificity for compound binding were conducted by immobilizing unrelated, but his-tagged, proteins (such as cyclophilin D) and conducting the same analysis as done with IL17A.
(Surface plasmon resonance follows binding to a sensor surface in real time, without labels.)

Assay [2] has as its target T2, recombinant human IL17a (binding to its receptor IL17R) (Homo sapiens, UniProt Q16552).
T2 construct: purchased R&D Systems 317-ILB (IL17a); 177-IR (IL17R/Fc)
T2 sequence (Q16552 20-155 limits assumed): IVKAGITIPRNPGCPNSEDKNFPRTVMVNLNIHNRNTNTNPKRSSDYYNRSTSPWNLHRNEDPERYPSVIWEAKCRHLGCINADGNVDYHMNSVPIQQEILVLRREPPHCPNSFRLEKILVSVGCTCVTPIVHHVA
Description: IL-17 competition ELISA I (IL17a coated, IL17R/Fc binding). Put shortly: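 Plates coated with 20 nM recombinant human IL17a received compound dilutions and 12 nM IL17R/Fc (final) for 30 min at room temperature. Bound receptor was detected with HRP anti-human Fc and TMB, read at 450 nm. IC50 came from a 4-parameter logistic fit between no-competitor and blank controls.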
A general note: An ELISA detects its analyte on a solid surface through an enzyme-linked reagent.

In assay [3] the target is T3, biotinylated human IL-17 (binding to IL17R/Fc) (Homo sapiens, UniProt Q16552).
T3 construct: purchased R&D Systems 317-ILB (IL-17, biotinylated); 177-IR (IL17R/Fc)
T3 sequence (Q16552 20-155 limits assumed): T2 sequence (Q16552 20-155 limits assumed)
Description: IL-17 competition ELISA II (captured IL17R/Fc, biotinylated IL-17). Put shortly: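 Competition read-out: absorbance at 450 nm after streptavidin-HRP/TMB detection, fitted to a 4-parameter logistic model bounded by no-competitor and blank wells to give IC50. Compound was serially diluted 5-fold from 1 μM alongside 20 nM (stock) biotinylated IL-17 on IL17R/Fc (10 nM) captured via goat anti-human IgG, 30 min at room temperature.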

Assay [4] concerns IL-17A induced secretion of IL-6 in primary human RASF cells. Description: Inhibition of IL17A induced secretion of IL6 in human rheumatoid arthritis synovial fibroblast (RASF) cells. The format is cell-based. The following applies: Homo sapiens, Fibroblast. Put shortly:
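Primary RASF cells (passage 2-8) stimulated 20 h at 37 °C with rhIL-17A (30 ng/mL) pre-incubated 1 h with compound (final 0.03-25 μM, 0.25% DMSO). Supernatant IL-6 measured by ELISA, normalized to WST1 viability; triplicates.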

“And” between values parts separate entries of the source, which are not always exact repeats. Equal values may be shown once.

A word on the Kd: it is the free concentration of one partner at which half of the binding sites on the other are occupied at equilibrium, for simple one-to-one binding. Low values mean tighter binding, high ones weaker binding. With `COC(=O)[C@H]1CCCCNC(=O)CCCNC(=O)[C@H](Cc2ccc(NC(=O)[C@H](Cc3ccccc3F)NC(=O)Cc3ccccc3)cc2)NC(=O)CC2(CCCC2)CC(=O)N1` [Compound 101], the dissociation constant Kd in assay [1] fell in the range of 1000 to 10000 nM. The same measure, in the same setting: as for `O=C1CC2(CCCC2)CC(=O)N[C@@H](C(=O)O)CCCCNC(=O)[C@H](Cc2ccc(NC(=O)[C@H](Cc3ccccc3F)NC(=O)Cc3ccccc3)cc2)N1` [Compound 102], the figure is over 10000 nM; as for `O=C1CCCNC(=O)[C@H](Cc2ccc(NC(=O)[C@H](Cc3ccccc3F)NC(=O)Cc3ccccc3)cc2)NC(=O)CC2(CCCC2)CC(=O)N[C@@H](C(=O)O)CCCCN1` [Compound 103], over 10000 nM; as for `COC(=O)[C@H]1CCCCNC(=O)CCCNC(=O)[C@H](Cc2ccc(NC(=O)[C@H](Cc3ccccc3)NC(=O)Cc3ccccc3)cc2)NC(=O)CC2(CCCC2)CC(=O)N1` [Compound 104], 1000 to 10000 nM. Same read-out and setting: as for `COC(=O)[C@@H]1CCCCNC(=O)CCCNC(=O)[C@H](Cc2ccc(NC(=O)[C@H](Cc3ccccc3F)NC(=O)Cc3ccccc3)cc2)NC(=O)CC2(CCCC2)CC(=O)N1` [Compound 105], the figure is 1000 to 10000 nM and 100 to 1000 nM; as for `COC(=O)[C@@H]1CCCCNC(=O)CCCCCNC(=O)[C@@H](Cc2ccc(NC(=O)[C@H](Cc3ccccc3F)NC(=O)Cc3ccccc3)cc2)NC(=O)CC2(CCCC2)CC(=O)N1` [Compound 111], 100 to 1000 nM; as for `COC(=O)[C@@H]1CCCCNC(=O)CCCNC(=O)[C@@H](Cc2ccc(NC(=O)[C@H](Cc3ccccc3)NC(=O)Cc3ccccc3)cc2)NC(=O)CC2(CCCC2)CC(=O)N1` [Compound 114], 100 to 1000 nM.

Take `COC(=O)[C@@H]1CCCCNC(=O)CCCNC(=O)[C@@H](Cc2ccc(NC(=O)[C@H](Cc3ccccc3)NC(=O)c3ccccc3)cc2)NC(=O)CC2(CCCC2)CC(=O)N1` [Compound 115]: the equilibrium dissociation constant (Kd) in assay [1] was 100 to 1000 nM.

The compound `COC(=O)[C@@H]1CCCCNC(=O)CCCNC(=O)[C@@H](Cc2ccc(NC(=O)[C@H](Cc3cccc(F)c3)NC(=O)Cc3ccccc3)cc2)NC(=O)CC2(CCCC2)CC(=O)N1` [Compound 116] showed a dissociation constant (Kd) in assay [1] of 100 to 1000 nM. Turning to `COC(=O)[C@@H]1CCCCNC(=O)CCCNC(=O)[C@@H](Cc2ccc(NC(=O)[C@H](Cc3cccc(F)c3)NC(=O)c3ccccc3)cc2)NC(=O)CC2(CCCC2)CC(=O)N1` [Compound 117], the equilibrium dissociation constant (Kd) in assay [1] is 100 to 1000 nM.

Compound `COC(=O)[C@@H]1CCCCNC(=O)CCCNC(=O)[C@@H](Cc2ccc(NC(=O)[C@H](Cc3ccc(F)cc3)NC(=O)c3ccccc3)cc2)NC(=O)CC2(CCCC2)CC(=O)N1` [Compound 119] displayed a dissociation constant (Kd) in assay [1] of 100 to 1000 nM.

Consider `COC(=O)[C@@H]1CCCCNC(=O)CCCNC(=O)[C@@H](Cc2ccc(NC(=O)[C@H](Cc3ccccc3Br)NC(=O)c3ccccc3)cc2)NC(=O)CC2(CCCC2)CC(=O)N1` [Compound 121], for which, in assay [1], the Kd was 100 to 1000 nM.

In assay [1], `CC[C@H](C)[C@H](NC(=O)c1ccccc1)C(=O)Nc1ccc(C[C@H]2NC(=O)CC3(CCCC3)CC(=O)N[C@H](C(=O)OC)CCCCNC(=O)CCCNC2=O)cc1` [Compound 123] gave a Kd of 1000 to 10000 nM. As to `COC(=O)[C@@H]1CCCCNC(=O)CCCNC(=O)[C@@H](Cc2ccc(NC(=O)[C@H](Cc3ccc(-c4ccccc4)cc3)NC(=O)Cc3ccccc3)cc2)NC(=O)CC2(CCCC2)CC(=O)N1` [Compound 124], the Kd in assay [1] was in the range of 100 to 1000 nM.

In assay [1], `COC(=O)[C@@H]1CCCCNC(=O)CCCNC(=O)[C@@H](Cc2ccc(NC(=O)[C@H](Cc3ccc(-c4ccccc4)cc3)NC(=O)c3ccccc3)cc2)NC(=O)CC2(CCCC2)CC(=O)N1` [Compound 125] returned a Kd of 100 to 1000 nM. The same measure, in the same setting: then `COC(=O)[C@@H]1CCCCNC(=O)CCCNC(=O)[C@@H](Cc2ccc(NC(=O)[C@H](Cc3ccccc3C)NC(=O)Cc3ccccc3)cc2)NC(=O)CC2(CCCC2)CC(=O)N1` [Compound 126], with 100 to 1000 nM; and `COC(=O)[C@@H]1CCCCNC(=O)CCCNC(=O)[C@@H](Cc2ccc(NC(=O)[C@H](Cc3ccccc3C)NC(=O)c3ccccc3)cc2)NC(=O)CC2(CCCC2)CC(=O)N1` [Compound 127], with 100 to 1000 nM. Usually IC50 stands for the concentration that inhibits the measured activity by half. Consider `O=C1CC2(CCCC2)CC(=O)N[C@H](Cc2ccc(NC(=O)[C@H](Cc3ccccc3Cl)NC(=O)Cc3ccccc3)cc2)C(=O)NCC(=O)N[C@H](C(=O)O)CCCCN1` [Compound 339], for which the IC50 in assay [2] was under 100 nM; in assay [3], under 100 nM; in assay [4] it was 100 to 1000 nM. Consider `O=C1CC2(CCCC2)CC(=O)N[C@H](Cc2ccc(NC(=O)[C@H](Cc3ccccc3Cl)NC(=O)Cc3ccccc3)cc2)C(=O)N[C@H](CO)C(=O)NCCCCCN1` [Compound 340], for which the half-maximal inhibitory concentration (IC50) in assay [2] is under 100 nM; in assay [3], under 100 nM; in assay [4], 100 to 1000 nM. With `NC(=O)CC[C@H]1NC(=O)[C@@H](Cc2ccc(NC(=O)[C@H](Cc3ccccc3Cl)NC(=O)Cc3ccccc3)cc2)NC(=O)CC2(CCCC2)CC(=O)NCCCCCNC1=O` [Compound 341], the concentration for half-maximal inhibition (IC50) in assay [2], in assay [3] and in assay [4] was under 100 nM in each case. For the compound `C[C@H]1NC(=O)[C@@H](Cc2ccc(NC(=O)[C@@H](NC(=O)Cc3ccccc3)C3CCCCC3)cc2)NC(=O)CC2(CCCC2)CC(=O)NCCCCCNC1=O` [Compound 342], the concentration for half-maximal inhibition (IC50) is 100 to 1000 nM in assay [2], under 100 nM in assay [3] and 100 to 1000 nM in assay [4]. In the case of `C[C@H]1NC(=O)[C@@H](Cc2ccc(NC(=O)[C@H](Cc3ccccc3Cl)NC(=O)c3cccnc3)cc2)NC(=O)CC2(CCCC2)CC(=O)NCCCCCNC1=O` [Compound 353], the IC50 in assay [2] is 100 to 1000 nM; in assay [3], under 100 nM; in assay [4], 1000 to 10000 nM. In the same order, the values of `C[C@H]1NC(=O)[C@@H](Cc2ccc(NC(=O)[C@@H](NC(=O)c3cccnc3)C3CCCCC3)cc2)NC(=O)CC2(CCCC2)CC(=O)NCCCCCNC1=O` [Compound 361] are 100 to 1000 nM, under 100 nM and 1000 to 10000 nM. The like results for `C[C@H]1NC(=O)[C@@H](Cc2ccc(NC(=O)[C@H](Cc3ccccc3Cl)NC(=O)Cc3ccccc3)cc2)NC(=O)CC2(CCCC2)CC(=O)N[C@H](C(=O)O)CCCCNC1=O` [Compound 367] were, in that order, under 100 nM, under 100 nM and under 100 nM. The like results for `C[C@H]1NC(=O)[C@@H](Cc2ccc(NC(=O)[C@H](Cc3ccccc3Cl)NC(=O)c3cccnc3)cc2)NC(=O)CC2(CCCC2)CC(=O)N[C@H](C(=O)O)CCCCNC1=O` [Compound 368] were, in that order, 100 to 1000 nM, under 100 nM and 100 to 1000 nM. Take `C[C@H]1NC(=O)[C@@H](Cc2ccc(NC(=O)[C@@H](NC(=O)Cc3ccccc3)C3CCCCC3)cc2)NC(=O)CC2(CCCC2)CC(=O)N[C@H](C(=O)O)CCCCNC1=O` [Compound 369]: the concentration for half-maximal inhibition (IC50) in assay [2], in assay [3] and in assay [4] was under 100 nM each time. Consider `O=C1CNC(=O)[C@@H](Cc2ccc(NC(=O)[C@@H](NC(=O)Cc3cccc(O)c3)C3CCCCC3)cc2)NC(=O)CC2(CCCC2)CC(=O)NCCCCCN1` [Compound 378], for which the half-inhibitory concentration (IC50) in assay [2] was 100 to 1000 nM; in assay [3], under 100 nM; in assay [4], 100 to 1000 nM.

For the origin of these results see patent US9284283B2, “Macrocyclic compounds for modulating IL-17” (ENSEMBLE THERAPEUTICS CORPORATION, priority 2012, dated 2016).
